Data as given in ChEMBL document CHEMBL1201862, “PubChem BioAssay data set” (2004).
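Cultured in 96-well plates, cells were exposed to test compound for 48 hours across five concentrations. Abbreviation: GI50, concentration required for 50% inhibition of growth.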 The source made the active and inactive calls. Cut-off read from the data, not from the text of the source: active = GI50 up to about 1.1 µM and inactive = higher.

What was measured:
Assay in all cases: NCI-60 cell line screen, 48 h
COLO 205 = test system: COLO 205
HT-29 = test system: HT-29
Hs-578T = test system: Hs-578T
IGROV-1 = test system: IGROV-1
K562 = test system: K562
KM12 = test system: KM12
NCI-H522 = test system: NCI-H522
NCI/ADR-RES = test system: NCI/ADR-RES
OVCAR-3 = test system: OVCAR-3
PC-3 = test system: PC-3
SK-MEL-2 = test system: SK-MEL-2
SK-OV-3 = test system: SK-OV-3
SN12C = test system: SN12C
SW-620 = test system: SW-620
U-251 = test system: U-251
UACC-62 = test system: UACC-62
UO-31 = test system: UO-31
CCRF-CEM = test system: CCRF-CEM
RPMI-8226 = test system: RPMI-8226

Row | SMILES | GI50 (COLO 205) | GI50 (HT-29) | GI50 (Hs-578T) | GI50 (IGROV-1) | GI50 (K562) | GI50 (KM12) | GI50 (NCI-H522) | GI50 (NCI/ADR-RES) | GI50 (OVCAR-3) | GI50 (PC-3) | GI50 (SK-MEL-2) | GI50 (SK-OV-3) | GI50 (SN12C) | GI50 (SW-620) | GI50 (U-251) | GI50 (UACC-62) | GI50 (UO-31) | GI50 (CCRF-CEM) | GI50 (RPMI-8226)
1 | Cc1cc(S(=O)(=O)NC2=NCCCN2)c(S)cc1Cl | 40.4 µM (inactive) | 20.8 µM (inactive) | 24.5 µM (inactive) | 27.5 µM (inactive) | 22.8 µM (inactive) | 37.8 µM (inactive) | 22 µM (inactive) | > 100 µM (inactive) | 31.6 µM (inactive) | 58.5 µM (inactive) | 12.4 µM (inactive) | 36.6 µM (inactive) | 49.4 µM (inactive) | 19.9 µM (inactive) | 34.4 µM (inactive) | 27.9 µM (inactive) | 58.9 µM (inactive) |  | 
2 | O=[N+]([O-])c1ccc2nc(Nc3ccccc3)c(Nc3ccccc3)nc2c1 | 1.62 µM (inactive) | 0.463 µM (active) | 2.65 µM (inactive) | 1.58 µM (inactive) | 2.04 µM (inactive) | 1.3 µM (inactive) | 0.369 µM (active) | 1.46 µM (inactive) |  | 0.847 µM (active) | 2.15 µM (inactive) | 0.787 µM (active) | 1.18 µM (inactive) | 1.56 µM (inactive) | 0.512 µM (active) | 1.02 µM (active) | 1.21 µM (inactive) | 0.875 µM (active) | 2.61 µM (inactive)
3 | CC(C)CCC(=O)c1ccoc1 [PERILLAKETONE] | > 100 µM (inactive) | > 100 µM (inactive) | > 100 µM (inactive) | > 100 µM (inactive) | > 100 µM (inactive) | > 100 µM (inactive) |  | > 100 µM (inactive) | > 100 µM (inactive) | > 100 µM (inactive) | > 100 µM (inactive) | > 100 µM (inactive) | > 100 µM (inactive) | > 100 µM (inactive) | > 100 µM (inactive) | > 100 µM (inactive) | > 100 µM (inactive) | > 100 µM (inactive) | > 100 µM (inactive)
4 | NCCS(=O)(=O)O [TAURINE] | > 100 µM (inactive) | > 100 µM (inactive) | > 100 µM (inactive) | > 100 µM (inactive) | > 100 µM (inactive) | > 100 µM (inactive) | > 100 µM (inactive) | > 100 µM (inactive) | > 100 µM (inactive) | > 100 µM (inactive) | > 100 µM (inactive) |  | > 100 µM (inactive) | > 100 µM (inactive) | > 100 µM (inactive) |  | > 100 µM (inactive) | > 100 µM (inactive) | > 100 µM (inactive)
